Results as given in PubChem BioAssay (NCI).
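Step 1: Grow cells in 96-well plates. Step 2: Expose to compound for 48 hours at 5 concentrations. Step 3: Interpolate endpoints linearly; if unreached, use highest concentration. Here, GI50 denotes the concentration required for 50% inhibition of growth. TGI: concentration producing complete growth inhibition.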

Columns and labels:
Assay in all cases: DTP human tumour cell line panel, 48 h; in the data active = GI50 below about 0.43 µM; inactive = the rest
[1] = tested on: UO-31 renal
[2] = tested on: ACHN renal
[3] = tested on: T-47D breast
[4] = tested on: SK-MEL-2 melanoma
[5] = tested on: SK-MEL-28 melanoma
[6] = tested on: NCI-H226 lung
[7] = tested on: HCC-2998 colon
[8] = tested on: SNB-19 CNS
[9] = tested on: TK-10 renal
[10] = tested on: OVCAR-4 ovarian
[11] = tested on: SK-OV-3 ovarian
[12] = tested on: SNB-75 CNS
[13] = tested on: MDA-MB-231 breast
[14] = tested on: SN12C renal
[15] = tested on: MCF7 breast
[16] = tested on: DU-145 prostate
[17] = tested on: A498 renal
[18] = tested on: SF-539 CNS
[19] = tested on: EKVX NSCLC
[20] = tested on: OVCAR-5 ovarian
[21] = tested on: KM12 colon
[22] = tested on: BT-549 breast
[23] = tested on: MDA-MB-435
[24] = tested on: UACC-62 melanoma
[25] = tested on: M14 melanoma
[26] = tested on: PC-3 prostate
[27] = tested on: NCI/ADR-RES ovarian
[28] = tested on: HCT-116 colon
[29] = tested on: MOLT-4 leukemia
[30] = tested on: HCT-15 colon
[31] = tested on: CAKI-1 renal
[32] = tested on: 786-0 renal
[33] = tested on: HS 578T breast
[34] = tested on: U251 CNS
[35] = tested on: HOP-92 NSCLC
[36] = tested on: RXF 393 renal
[37] = tested on: HOP-62 NSCLC
[38] = tested on: OVCAR-3 ovarian
[39] = tested on: COLO 205 colon
[40] = tested on: UACC-257 melanoma
[41] = tested on: A549 NSCLC
[42] = tested on: SK-MEL-5 melanoma
[43] = tested on: SW-620 colon
[44] = tested on: NCI-H522 lung
[45] = tested on: NCI-H23 lung
[46] = tested on: SF-268 CNS
[47] = tested on: NCI-H460 lung
[48] = tested on: HL-60(TB) leukemia
[49] = tested on: SF-295 CNS
[50] = tested on: IGROV1 ovarian
[51] = tested on: K-562 leukemia
[52] = tested on: OVCAR-8 ovarian
[53] = tested on: LOX IMVI melanoma
[54] = tested on: MALME-3M melanoma
[55] = tested on: RPMI-8226 leukemia
[56] = tested on: CCRF-CEM leukemia
[57] = tested on: HT29 colon

C=CCOC(=O)CCCCCCCCCCCCCCCOC(=O)C1=C(CCC[C@@H](C)O[Si](C)(C)C(C)(C)C)N=C(N)N2[C@H](CC3(CC/C=C\[C@H](CC)O[Si](C(C)C)(C(C)C)C(C)C)OCCO3)CC[C@@H]12
> 100 µM: TGI [1] | TGI [2] | TGI [3] | TGI [4] | TGI [5] | TGI [6] | TGI [7] | TGI [8] | TGI [9] | TGI [10] | TGI [11] | TGI [12] | TGI [13] | TGI [14] | TGI [15] | TGI [16] | TGI [17]

Cc1ccc(-n2c3c(c4c(CN5CCCCC5)c(O)ccc42)CCc2ccccc2C3=O)cc1
80.7 µM: TGI [37]
inactive: GI50 [18] 50 µM | GI50 [19] > 100 µM | GI50 [1] > 100 µM | GI50 [2] > 100 µM | GI50 [20] > 100 µM | GI50 [21] > 100 µM | GI50 [22] > 100 µM | GI50 [23] > 100 µM | GI50 [24] 97.4 µM | GI50 [3] > 100 µM | GI50 [25] > 100 µM | GI50 [4] > 100 µM | GI50 [26] 59.2 µM | GI50 [27] 71.2 µM | GI50 [28] 43.4 µM | GI50 [29] > 100 µM | GI50 [30] > 100 µM | GI50 [6] > 100 µM | GI50 [7] > 100 µM | GI50 [31] > 100 µM | GI50 [32] 33.5 µM | GI50 [33] > 100 µM | GI50 [34] 47.9 µM | GI50 [35] 20 µM | GI50 [36] 24.7 µM | GI50 [37] 27.5 µM | GI50 [38] > 100 µM | GI50 [39] > 100 µM | GI50 [40] > 100 µM | GI50 [41] > 100 µM | GI50 [42] > 100 µM | GI50 [43] > 100 µM | GI50 [8] > 100 µM | GI50 [44] > 100 µM | GI50 [45] > 100 µM | GI50 [46] > 100 µM | GI50 [47] > 100 µM | GI50 [9] > 100 µM | GI50 [48] 0.477 µM | GI50 [11] > 100 µM | GI50 [49] 35.8 µM | GI50 [50] 39.9 µM | GI50 [51] 32.2 µM | GI50 [52] 46 µM | GI50 [53] > 100 µM | GI50 [13] 30.7 µM | GI50 [14] > 100 µM | GI50 [15] > 100 µM | GI50 [54] > 100 µM | GI50 [16] > 100 µM | GI50 [17] > 100 µM | GI50 [55] > 100 µM
> 100 µM: TGI [18] | TGI [19] | TGI [1] | TGI [2] | TGI [20] | TGI [21] | TGI [22] | TGI [23] | TGI [24] | TGI [3] | TGI [25] | TGI [4] | TGI [26] | TGI [27] | TGI [28] | TGI [29] | TGI [30] | TGI [6] | TGI [7] | TGI [31] | TGI [32] | TGI [33] | TGI [34] | TGI [36] | TGI [38] | TGI [39] | TGI [40] | TGI [41] | TGI [42] | TGI [43] | TGI [8] | TGI [44] | TGI [45] | TGI [46] | TGI [47] | TGI [9] | TGI [48] | TGI [11] | TGI [49] | TGI [50] | TGI [51] | TGI [52] | TGI [53] | TGI [13] | TGI [14] | TGI [15] | TGI [54] | TGI [16] | TGI [17] | TGI [55]
88.2 µM: TGI [35]

O=C(Oc1cccnc1)c1ccccc1Nc1ccnc(C(F)(F)F)c1
> 95.9 µM: TGI [20]
7.22 µM: TGI [55]
0.214 µM: TGI [37]
4.64 µM: TGI [32]
> 74.6 µM: TGI [2]
13.1 µM: TGI [17]
2.35 µM: TGI [42]
46.9 µM: TGI [31]
0.707 µM: TGI [49]
2.72 µM: TGI [21]
15.1 µM: TGI [7]
> 100 µM: TGI [18] | TGI [56] | TGI [4] | TGI [26] | TGI [27] | TGI [29] | TGI [30] | TGI [33] | TGI [35] | TGI [40] | TGI [41] | TGI [43] | TGI [8] | TGI [44] | TGI [48] | TGI [10] | TGI [11] | TGI [12] | TGI [50] | TGI [51] | TGI [52] | TGI [54]
3.11 µM: TGI [25]
13.5 µM: TGI [36]
> 64.6 µM: TGI [24]
active: GI50 [18] 0.0428 µM | GI50 [2] 0.353 µM | GI50 [21] 0.169 µM | GI50 [22] 0.104 µM | GI50 [24] 0.313 µM | GI50 [56] 0.0334 µM | GI50 [25] 0.0536 µM | GI50 [27] 0.186 µM | GI50 [28] 0.0342 µM | GI50 [29] 0.0499 µM | GI50 [30] 0.121 µM | GI50 [7] 0.363 µM | GI50 [31] 0.0525 µM | GI50 [32] 0.158 µM | GI50 [34] 0.33 µM | GI50 [37] 0.0473 µM | GI50 [38] 0.141 µM | GI50 [39] 0.156 µM | GI50 [42] 0.203 µM | GI50 [43] 0.0498 µM | GI50 [44] 0.402 µM | GI50 [45] 0.049 µM | GI50 [46] 0.333 µM | GI50 [47] 0.342 µM | GI50 [9] 0.369 µM | GI50 [10] 0.207 µM | GI50 [11] 0.25 µM | GI50 [49] 0.257 µM | GI50 [51] 0.0426 µM | GI50 [52] 0.413 µM | GI50 [57] 0.0487 µM | GI50 [53] 0.0406 µM | GI50 [13] 0.233 µM | GI50 [14] 0.17 µM | GI50 [15] 0.0865 µM | GI50 [16] 0.273 µM | GI50 [55] 0.0563 µM
14.4 µM: TGI [46]
> 60.1 µM: TGI [5]
> 94.8 µM: TGI [14]
3.17 µM: TGI [16]
> 35 µM: TGI [47]
> 87.3 µM: TGI [1]
> 45.5 µM: TGI [15]
inactive: GI50 [19] 6.15 µM | GI50 [1] 3.84 µM | GI50 [20] 0.63 µM | GI50 [3] 23 µM | GI50 [4] 20.2 µM | GI50 [26] 0.449 µM | GI50 [5] 0.483 µM | GI50 [6] 0.552 µM | GI50 [33] 4.13 µM | GI50 [35] 6.64 µM | GI50 [36] 0.473 µM | GI50 [40] 35.7 µM | GI50 [41] 0.589 µM | GI50 [8] 0.54 µM | GI50 [48] 43.3 µM | GI50 [12] > 63.4 µM | GI50 [50] 21.7 µM | GI50 [54] 33.1 µM | GI50 [17] 2.48 µM
46.4 µM: TGI [19]
1.83 µM: TGI [45]
> 96.2 µM: TGI [34]
51.5 µM: TGI [3]
0.363 µM: TGI [39]
0.453 µM: TGI [38]
> 62.2 µM: TGI [13]
29.3 µM: TGI [6]
31.8 µM: TGI [9]
2.18 µM: TGI [22]
> 37.8 µM: TGI [53]
